# Earlier results, collected in US20210290592A1, “COMPOSITION AND METHOD FOR OPIOID SPARING” (Zelira Therapeutics Operations Pty Ltd., priority 2018, published 2021).
# Settings: treatment group, 5 mg THC, n=105; 74 mg in control group, difference not statistically significant
structure (smiles),measurement,value
CCCCCc1cc(O)c2c(c1)OC(C)(C)[C@@H]1CCC(C)=C[C@@H]21 [dronabinol],Median dose of micro-opioid agonist piritramide in the two days post surgery,54 mg
